Reference: article PMC5399635 (The Journal of Pharmacology and Experimental Therapeutics, 2017)
Structures can show the parent of a compound that is named as a salt. Where two headings read alike, the source gives them in different places.

Key:
[1] = rat, in vivo, 30 s, 20 μM, pH 7.4
rat κ-opioid receptor = target: T1, rat κ-opioid receptor (Rattus norvegicus, UniProt P34975); test: Radioligand binding, κ-opioid receptor ([3H]U69593); settings: cloned rat κ-opioid receptors; read-out: geometric mean Ki
T1 construct: expressed in transfected cells; host or cells: CHO cells
T1 sequence (P34975 whole entry): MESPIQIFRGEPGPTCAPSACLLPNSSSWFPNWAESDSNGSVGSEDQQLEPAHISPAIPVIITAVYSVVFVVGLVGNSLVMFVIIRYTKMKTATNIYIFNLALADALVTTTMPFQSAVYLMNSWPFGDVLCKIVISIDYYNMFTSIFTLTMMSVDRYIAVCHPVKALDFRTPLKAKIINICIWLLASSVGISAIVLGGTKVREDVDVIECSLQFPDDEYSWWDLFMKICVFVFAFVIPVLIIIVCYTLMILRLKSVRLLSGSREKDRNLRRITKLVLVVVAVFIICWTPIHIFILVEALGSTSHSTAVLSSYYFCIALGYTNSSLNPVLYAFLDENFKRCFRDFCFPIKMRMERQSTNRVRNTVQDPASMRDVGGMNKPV
Experimental: Competitive inhibition studies were performed on cloned opioid receptors expressed in membranes of Chinese hamster ovary (CHO) cells and conducted in triplicate (n = 3 independent experiments).
Radioligand binding assays were performed to evaluate the ability of these agents to inhibit specific radioligand binding to cloned opioid receptor subtypes. Half-maximal inhibitory concentration (IC50), equilibrium dissociation constant for the inhibitor (Ki), and negative log of the equilibrium dissociation constant for the inhibitor (pKi) values were obtained. The receptor binding methods used for µ ([Zhang et al., 1998])-, δ ([Simonin et al., 1994])-, and κ ([Meng et al., 1993])-opioid receptors have been described previously, with the exception that 100 mM NaCl was added to the incubation buffer in the µ-opioid receptor binding assay. All assays were conducted in 200-µl volume. All assay incubations were terminated by filtration, and bound radioligand was quantitated by liquid scintillation spectrometry. The IC50 values were determined by nonlinear regression analysis of the competition curves generated with the mean of duplicate values using Hill equation curve fitting. The inhibition constants (Ki) were calculated using the Cheng-Prusoff equation. The pKi results from three independent experiments were analyzed for significant differences by one-way analysis of variance (ANOVA) followed by Bonferroni multiple comparison test.

human µ-opioid receptor [2] = target: T2, human µ-opioid receptor (Homo sapiens, UniProt P35372); test: Radioligand binding, µ-opioid receptor ([3H]diprenorphine); parameters: expressed in transfected cells; b18 says CHO cells; settings: read-out: geometric mean Ki
T2 sequence (P35372 whole entry): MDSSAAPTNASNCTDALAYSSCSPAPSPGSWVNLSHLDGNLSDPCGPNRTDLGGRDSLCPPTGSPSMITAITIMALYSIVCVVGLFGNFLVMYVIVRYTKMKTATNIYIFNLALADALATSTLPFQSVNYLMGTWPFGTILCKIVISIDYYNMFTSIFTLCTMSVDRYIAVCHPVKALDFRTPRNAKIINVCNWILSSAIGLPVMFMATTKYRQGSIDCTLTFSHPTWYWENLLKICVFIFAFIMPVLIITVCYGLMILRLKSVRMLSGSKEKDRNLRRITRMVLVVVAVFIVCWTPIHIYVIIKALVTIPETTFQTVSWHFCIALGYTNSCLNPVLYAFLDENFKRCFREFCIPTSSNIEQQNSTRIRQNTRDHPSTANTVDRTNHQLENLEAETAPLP

human µ-opioid receptor [3] = target: T2, human µ-opioid receptor; test: [35S]GTPγS binding, Schild-type antagonism of morphine (CHO-K1 membranes)
in vitro = settings: human
[4] = In situ rat brain perfusion model; settings: 30 s perfusion, test compound 20 μM, atenolol 50 μM, antipyrine 5 μM, mean ± S.D.
[5] = test system: morphine-induced antinociception; test: Hot plate model of nociception, antagonism of morphine
[6] = test system: morphine-induced inhibition of gastrointestinal transit; test: Gastrointestinal transit model (charcoal meal), antagonism of morphine

Which “Brain Uptake” value [1] does the source give for `Cc1cc(=O)n(-c2ccccc2)n1C` [Antipyrine, antipyrine] here?
The value was 28.2 ± 14.3 pmol/g brain/s.

With `C[N@+]1(CC2CC2)CC[C@]23c4c5ccc(O)c4O[C@H]2C(=O)CC[C@@]3(O)[C@H]1C5` [Methylnaltrexone, Methylnaltrexone bromide] as the compound, how does the Ki (rat κ-opioid receptor) read?
The Ki was 10.9 nM.

And the Ki (human µ-opioid receptor [2])?
The Ki was 22.1 nM.

What about the Kb (human µ-opioid receptor [3]) of the same compound?
Its Kb is 37 nM.

What about the pA2 (human µ-opioid receptor [3]; versus morphine, 3 independent experiments) of the same compound?
The pA2 was 7.43 ± 0.02.

What about the Schild slope (human µ-opioid receptor [3]; versus morphine, pooled 3 experiments) of the same compound?
The Schild slope was “–0.982”.

Which results are given for `C=CCN1CC[C@]23c4c5ccc(O)c4O[C@H]2C(=O)CC[C@@]3(O)[C@H]1C5` [Naloxone, naloxone hydrochloride, reference compound]?
Papp A→B at 2 h, 10 μM (in vitro; Caco-2, pH 7.4, Papp A→B, no P-gp inhibitor, mean of 3 experiments): 27.3 ×10⁻⁶ cm/s; Papp B→A at 2 h, 10 μM (in vitro; Caco-2, pH 7.4, Papp B→A, no P-gp inhibitor, mean of 3 experiments): 25 ×10⁻⁶ cm/s; Papp A→B at 2 h, 10 μM (in vitro; Caco-2, pH 7.4, with cyclosporin A, Papp A→B, Cyclosporin A): 28.4 ×10⁻⁶ cm/s; Papp B→A at 2 h, 10 μM (in vitro; Caco-2, pH 7.4, with cyclosporin A, Papp B→A, Cyclosporin A): 23.7 ×10⁻⁶ cm/s; Papp A→B at 2 h, 10 μM (in vitro; Caco-2, pH 7.4, with elacridar, 0.5 μM, Papp A→B, Elacridar): 24.8 ×10⁻⁶ cm/s; Papp B→A at 2 h, 10 μM (in vitro; Caco-2, pH 7.4, with elacridar, 0.5 μM, Papp B→A, Elacridar): 27.3 ×10⁻⁶ cm/s; Papp A→B at 2 h, 10 μM (in vitro; Caco-2, pH 7.4, with verapamil, 100 μM, Papp A→B, Verapamil): 24.5 ×10⁻⁶ cm/s; Papp B→A at 2 h, 10 μM (in vitro; Caco-2, pH 7.4, with verapamil, 100 μM, Papp B→A, Verapamil): 24.9 ×10⁻⁶ cm/s; Brain Uptake [4]: 60.2 ± 13.7 pmol/g brain/s; ED50 ([5]; Rattus norvegicus, po, read-out: ED50, antagonism of morphine analgesia): 1.14 mg/kg; oral dose that completely reversed the analgesic effect of morphine ([5]; hot plate assay, rat): ≥ 10 mg/kg; oral dose that completely reversed the effect of morphine ([6]; GI transit assay, rat): ≥ 10 mg/kg; ED50 ([6]; Rattus norvegicus, read-out: ED50, antagonism of morphine in GI transit): 0.69 mg/kg
